Source: patent US20220289657A1, “COMPOSITION FOR PREVENTING OR TREATING BACTERIAL INFECTIOUS DISEASE COMPRISING 4-GINGEROL DERIVATIVE COMPOUND AS ACTIVE INGREDIENT” (KOREA UNIVERSITY RESEARCH AND BUSINESS FOUNDATION, SEJONG …, priority 2019, published 2022)
Where two headings read alike, the source gives them in different places. Marks after values point to notes of the source that are not given here.

Tests used:
Pseudomonas aeruginosa [1] = test: Bacterial growth under static condition (OD 595 nm of suspended culture); assay type: cell-based; settings: for activity at 10 µM / activity at 100 µM: Pseudomonas aeruginosa, 24 h, Table 3; for activity at 10 µM: read-out: Relative biological activity (%) Bacterial growth 10; for activity at 100 µM: read-out: Relative biological activity (%) Bacterial growth 100; for Relative biological activity (%) Bacterial growth: Table 4, concentration not given
Procedure: (§1) Pseudomonas aeruginosa (P. aeruginosa) (OD 595 nm=1.0) was cultured overnight, and diluted in an AB medium (1:20; 300 mM NaCl, 50 mM MgSO4, 0.2% vitamin-free casamino acids, 10 mM potassium phosphate, 1 mM L-arginine, and 1% glucose, pH 7.5) together with a positive control or compound (0100 μM) in a borosilicate bottle. The resulting mixture was incubated without shaking at 37° C. for 24 hours, and to measure growth inhibition activity. OD 595 nm of the suspended culture was measured using a multimode plate reader. Biofilm cells attached to the bottle were washed twice with phosphate-buffered saline (PBS; 137 mM NaCl, 2.7 mM KCl, 10 mM Na2HPO4, and 2 mM KH2PO4, pH 7.2). Afterward, the remaining biofilm cells were stained with 0.1% crystal violet for 10 minutes, and to remove the unbound crystal violet, washed with deionized water. The crystal violet […] to the biofilm cells was eluted with 100% ethanol, and the OD of the eluted ethanol sample was measured at 545 nm using a multimode plate reader.

Pseudomonas aeruginosa [2] = test: Static biofilm formation assay (crystal violet); assay type: cell-based; settings: for activity at 10 µM / activity at 100 µM: Pseudomonas aeruginosa, 24 h, Table 3; for activity at 10 µM: read-out: Relative biological activity (%) Biofilm formation 10; for activity at 100 µM: read-out: Relative biological activity (%) Biofilm formation 100; for Relative biological activity (%) Biofilm formation: Table 4, concentration not given
Procedure: as §1

P. aeruginosa = test: Rhamnolipid production assay; assay type: cell-based, Pseudomonas aeruginosa; settings: for activity at 10 µM / activity at 100 µM: Pseudomonas aeruginosa, 24 h, Table 3; for activity at 10 µM: read-out: Relative biological activity (%) Rhamnolipid production 10; for activity at 100 µM: read-out: Relative biological activity (%) Rhamnolipid production 100; for Relative biological activity (%) Rhamnolipid production: Table 4, concentration not given
Procedure: P. aeruginosa (OD 595 nm=1.0) cultured overnight was inoculated in an AB medium (1:100) with a positive control or compound (0100 μM), and incubated using a shaking culture for 24 hours at 37° C. The cell culture was centrifuged for 5 minutes at 4° C. and 12,000 g. Rhamnolipids were extracted twice by mixing 200 μL of a supernatant and 400 μL of 100% diethyl ether (JUNSEI, Tokyo, Japan). The supernatant was transferred to a new tube and evaporated. A dried sample was eluted with 20 μL of deionized water, and reacted with 180 μL of an Orcinal solution (0.19% Orcinal (Sigma-Aldrich) in 53% H2SO4). The reaction mixture was heated for 30 minutes at 80° C., and cooled for 15 minutes at room temperature. The amount of rhamnolipids was measured at OD 421 nm, and normalized in the cell culture solution at OD 595 nm using a multimode plate reader.

RhlR = target: T1, RhlR (Pseudomonas aeruginosa, UniProt P54292); test: cell-based; settings: for Relative RhIR Activity (%) Agonism 100 / Relative RhIR Activity (%) Agonism 1000: Table 3; for Relative RhIR Activity (%) Agonism 1000: 1000 (μM); for remaining activity at 10 µM: read-out: Relative RhIR Activity (%) Antagonism 10, Table 3; for activity at 100 µM: read-out: Relative RhlR activity Agonism, Table 2, matches the 100 column of Table 3; for Relative RhlR activity Antagonism: Table 2; for Relative RhIR activity (%) Agonism / Relative RhIR activity (%) Antagonism: Table 4, concentration not given
T1 construct: expressed in transfected cells; host or cells: E. coli sdiA variant co-transformed with pJN105R and pSC11 (RhlA::lacZ)
T1 sequence (P54292 whole entry): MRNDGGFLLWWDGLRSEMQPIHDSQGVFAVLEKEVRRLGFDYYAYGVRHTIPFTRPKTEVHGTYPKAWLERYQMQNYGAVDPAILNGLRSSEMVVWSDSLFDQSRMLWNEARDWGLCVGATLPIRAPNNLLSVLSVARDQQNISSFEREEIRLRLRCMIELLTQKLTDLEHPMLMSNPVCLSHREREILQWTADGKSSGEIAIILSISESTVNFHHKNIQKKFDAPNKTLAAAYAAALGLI
Procedure: Escherichia coli (E. coli) DH5a includes LuxR homolog SdiA detecting endogenous AHL synthesized by other microbial species, particularly, BHL.
For RhlR reporter strain analysis, the present invention used pJN105R (RhlR expression plasmid), anspSC11 (RhlA::lacZ fusion plasmid) and an sdiA variant co-transformed with the two plasmids. 1% of an overnight-cultured reporter strain (OD 595 nm=1.0) supplemented with 10 μg/mL gentamicin and 50 μg/mL ampicillin was cultured in a Luria-Bertani (LB) medium (Difco, Detroit, Mich., USA) with a positive control or a compound (0-1000 μM) and BHL (0-10 μM) (Sigma-Aldrich) at 37° C. for 2 hours. 0.4% arabinose (Sigma-Aldrich) was reacted with the resulting product at 37° C. for 1.5 hours. β-galactosidase activity was evaluated using a Tropix plus kit (Applied Biosystems, CA, USA), and OD 595 nm and luminescence were measured using a VICTOR x5 multimode plate reader (PerkinElmer, Waltham, Mass., USA). Relative RhlR activity was quantified by measuring luminescence at OD 595 nm. In addition, for LasR reporter strain analysis, the present invention used pJN105L (LasR expression plasmid) and pSC11 (lasI::lacZ fusion plasmid), E. coli DH5a co-transformed with the two plasmids, and OdDHL (Sigma-Aldrich).

[3] = read-out: Relative RhIR Activity (%) Antagonism 100, Table 3, 100 (μM)
[4] = read-out: Relative RhlR activity Antagonism, Table 2, footnotes not given, 100 μM per Table 3, lower = stronger antagonism
[5] = footnotes not given, 100 μM per Table 3, lower = stronger antagonism

SMILES | activity at 10 µM (Pseudomonas aeruginosa [1]) | activity at 100 µM (Pseudomonas aeruginosa [1]) | activity at 10 µM (Pseudomonas aeruginosa [2]; static) | activity at 100 µM (Pseudomonas aeruginosa [2]; static) | biofilm formation compared with a control (in words) (Pseudomonas aeruginosa [2]; static, 100 μM) | activity at 10 µM (P. aeruginosa) | activity at 100 µM (P. aeruginosa) | Relative RhIR Activity (%) Agonism 100 (RhlR; 100 (μM)) | Relative RhIR Activity (%) Agonism 1000 (RhlR) | remaining activity at 10 µM (RhlR) | remaining activity at 100 µM (RhlR; [3]) | activity at 100 µM (RhlR; footnotes not given) | remaining activity at 100 µM (RhlR; [4]) | Relative biological activity (%) Bacterial growth (Pseudomonas aeruginosa [1]) | Relative biological activity (%) Biofilm formation (Pseudomonas aeruginosa [2]) | Relative biological activity (%) Rhamnolipid production (P. aeruginosa) | Relative RhlR activity Antagonism (RhlR; [5]) | Relative RhIR activity (%) Agonism (RhlR) | Relative RhIR activity (%) Antagonism (RhlR)
CCCCCC(=O)/C=C/c1ccc(F)c(F)c1 [Compound 13a, (E)-1-(3,4-Difluorophenyl)oct-1-en-3-one] | 103% | 103% | 80% | 61% | significantly inhibited | 64% | 62% | 4** % | 3** % | 53% | 51% | 4% | 51% |  |  |  |  |  | 
CCCC(O)CC(=O)/C=C/c1ccc(O)cc1 (stereo not drawn) [Compound 11d, (E)-5-Hydroxy-1-(4-hydroxyphenyl)oct-1-en-3-one] |  |  |  |  |  |  |  |  |  |  |  | 1% | 51% | 105% | 74* % | 83% | 51** % | 1** % | 51** %
CCCCCC(=O)C#Cc1ccc(O)c(OC)c1 [Compound 21, 1-(4-Hydroxy-3-methoxyphenyl)oct-1-yn-3-one] |  |  |  |  |  |  |  |  |  |  |  | 3% | 29% | 102% | 72* % | 81* % | 29** % | 3** % | 29** %
CCCC(O)C#Cc1ccc(F)c(F)c1 (racemic) [Compound 33a, 1-(3,4-Difluorophenyl)hex-1-yn-3-ol] | 100% | 104% | 73% | 60% |  |  | 49% | 3** % | 5** % | 45% | 32% | 3% | 32% |  |  |  |  |  | 
CCC[C@H](O)C#Cc1ccc(F)c(F)c1 [Compound 33c, (S)-1-(3,4-Difluorophenyl)hex-1-yn-3-ol] | 98% | 99% | 79% | 64% |  | 59% | 52% | 3** % | 5** % | 59% | 38% | 3% | 38% |  |  |  |  |  | 
CCCCC[C@@H](O)C#Cc1ccc(O)c(OC)c1 [Compound 23b, (R)-4-(3-Hydroxyoct-1-yn-1-yl)-2-methoxyphenol] |  |  |  |  |  |  |  |  |  |  |  | 3% | 27% | 100% | 79* % | 77* % | 27** % | 3** % | 27** %
